Active and inactive are the calls of the source.
Key:
[1] = molecular target: FAD-linked sulfhydryl oxidase ALR (Homo sapiens, UniProt P55789); assay: inhibitors of human ALR sulfhydryl oxidase, dose response, biochemical, H2O2 detection, luminescence, cherry-pick (AID 493248)
[2] = molecular target: Large T antigen (Simian virus 40, UniProt P03070); format: functional, Betapolyomavirus macacae;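 note: Confirmatory-stage PubChem screen for compounds that inhibit SV40 T antigen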
[3] = molecular target: Paired box protein Pax-8 (Homo sapiens, UniProt Q06710); assay: inhibitors of PAX8-driven TPO luciferase reporter, dose response, RMG-I cells, cherry-pick (AID 687027); format: functional, cell-based;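 note: luciferase reporter driven by Pax8 target thyroperoxidase promoter measured by SteadyGlo luminescence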
Chain of Paired box protein Pax-8 (Q06710 whole entry): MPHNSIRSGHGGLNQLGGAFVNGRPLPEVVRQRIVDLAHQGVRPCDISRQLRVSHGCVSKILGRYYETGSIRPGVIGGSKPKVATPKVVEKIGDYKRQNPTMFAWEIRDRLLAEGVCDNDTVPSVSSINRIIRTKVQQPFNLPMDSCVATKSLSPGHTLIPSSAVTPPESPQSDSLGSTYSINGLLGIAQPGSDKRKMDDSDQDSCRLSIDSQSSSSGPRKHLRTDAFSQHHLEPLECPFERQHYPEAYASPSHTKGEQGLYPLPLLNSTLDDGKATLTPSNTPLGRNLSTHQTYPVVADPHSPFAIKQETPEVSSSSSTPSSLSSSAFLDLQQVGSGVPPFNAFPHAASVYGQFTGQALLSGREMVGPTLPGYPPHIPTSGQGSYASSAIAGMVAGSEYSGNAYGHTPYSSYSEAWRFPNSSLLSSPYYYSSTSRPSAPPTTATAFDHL

[4] = molecular target: T1, Leucine aminopeptidase (Plasmodium falciparum 3D7, UniProt Q8IL11); assay: P. falciparum M17LAP inhibitors, primary screen, biochemical, fluorogenic H-Leu-NHMec substrate, 1536-well (AID 1619); format: functional
T1 sequence (Q8IL11 whole entry): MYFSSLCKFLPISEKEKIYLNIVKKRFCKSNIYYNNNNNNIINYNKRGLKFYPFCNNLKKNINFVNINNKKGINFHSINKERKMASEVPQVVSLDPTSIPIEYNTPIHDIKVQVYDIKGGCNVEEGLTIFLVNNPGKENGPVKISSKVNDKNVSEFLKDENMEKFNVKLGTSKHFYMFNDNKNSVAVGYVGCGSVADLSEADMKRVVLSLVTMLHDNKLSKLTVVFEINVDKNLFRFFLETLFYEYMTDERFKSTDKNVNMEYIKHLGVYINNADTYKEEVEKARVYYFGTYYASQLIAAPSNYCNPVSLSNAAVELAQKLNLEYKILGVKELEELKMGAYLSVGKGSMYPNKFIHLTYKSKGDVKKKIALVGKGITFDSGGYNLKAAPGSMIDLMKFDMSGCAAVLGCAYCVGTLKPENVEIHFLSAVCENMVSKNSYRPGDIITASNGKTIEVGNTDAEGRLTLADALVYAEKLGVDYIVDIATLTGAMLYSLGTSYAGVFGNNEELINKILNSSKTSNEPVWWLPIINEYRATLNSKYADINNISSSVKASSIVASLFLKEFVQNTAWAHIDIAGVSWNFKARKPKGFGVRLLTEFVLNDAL

[5] = molecular target: T2, Aminopeptidase N (Plasmodium falciparum FcB1/Columbia, UniProt O96935); assay: P. falciparum M1AAP inhibitors, biochemical, fluorogenic H-Leu-NHMec substrate, 1536-well (AID 1445); set-up: species or system Plasmodium falciparum 3D7, 3D7
T2 sequence (O96935 whole entry): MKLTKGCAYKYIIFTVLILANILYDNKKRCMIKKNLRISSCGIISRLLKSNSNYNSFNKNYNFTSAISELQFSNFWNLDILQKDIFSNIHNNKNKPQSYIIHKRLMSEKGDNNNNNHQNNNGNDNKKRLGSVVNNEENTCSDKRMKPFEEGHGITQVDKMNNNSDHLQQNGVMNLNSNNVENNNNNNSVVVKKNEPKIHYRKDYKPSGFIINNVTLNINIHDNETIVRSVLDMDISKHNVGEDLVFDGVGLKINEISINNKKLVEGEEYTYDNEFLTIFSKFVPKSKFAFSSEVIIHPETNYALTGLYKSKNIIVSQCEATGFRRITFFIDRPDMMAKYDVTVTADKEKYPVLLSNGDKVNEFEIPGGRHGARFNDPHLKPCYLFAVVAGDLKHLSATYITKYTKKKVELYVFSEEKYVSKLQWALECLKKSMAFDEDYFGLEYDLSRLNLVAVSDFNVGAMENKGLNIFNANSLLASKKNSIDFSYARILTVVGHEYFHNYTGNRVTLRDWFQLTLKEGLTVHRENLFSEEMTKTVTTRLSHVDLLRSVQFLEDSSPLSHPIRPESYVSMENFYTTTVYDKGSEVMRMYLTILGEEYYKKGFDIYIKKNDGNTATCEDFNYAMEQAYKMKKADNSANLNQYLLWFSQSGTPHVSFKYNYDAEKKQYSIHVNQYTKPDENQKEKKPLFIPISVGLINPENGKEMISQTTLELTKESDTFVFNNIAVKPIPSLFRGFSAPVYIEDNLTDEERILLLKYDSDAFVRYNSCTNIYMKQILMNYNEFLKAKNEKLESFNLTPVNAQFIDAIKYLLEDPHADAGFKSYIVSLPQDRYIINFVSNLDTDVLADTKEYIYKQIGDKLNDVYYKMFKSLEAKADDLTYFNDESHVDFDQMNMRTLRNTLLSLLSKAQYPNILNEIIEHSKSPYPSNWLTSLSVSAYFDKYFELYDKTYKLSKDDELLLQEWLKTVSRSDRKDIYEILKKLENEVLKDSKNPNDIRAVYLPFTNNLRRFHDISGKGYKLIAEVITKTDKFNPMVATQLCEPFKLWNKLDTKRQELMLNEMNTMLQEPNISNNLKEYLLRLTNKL

[6] = molecular target: T3, Heat shock factor protein 1 (Mus musculus, UniProt P38532); assay: HSF1 potentiators in luciferase reporter cells, confirmation, cell-based, NIH3T3, luminescence, dose retest (AID 435004); format: functional;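 note: stress induced by proteasome inhibitor MG132 added 30 min after compound; luciferase reporter driven by HSF1 response element in NIH3T3 cells; actives raise luminescence as potentiators of the MG132 stress response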
T3 sequence (P38532 whole entry): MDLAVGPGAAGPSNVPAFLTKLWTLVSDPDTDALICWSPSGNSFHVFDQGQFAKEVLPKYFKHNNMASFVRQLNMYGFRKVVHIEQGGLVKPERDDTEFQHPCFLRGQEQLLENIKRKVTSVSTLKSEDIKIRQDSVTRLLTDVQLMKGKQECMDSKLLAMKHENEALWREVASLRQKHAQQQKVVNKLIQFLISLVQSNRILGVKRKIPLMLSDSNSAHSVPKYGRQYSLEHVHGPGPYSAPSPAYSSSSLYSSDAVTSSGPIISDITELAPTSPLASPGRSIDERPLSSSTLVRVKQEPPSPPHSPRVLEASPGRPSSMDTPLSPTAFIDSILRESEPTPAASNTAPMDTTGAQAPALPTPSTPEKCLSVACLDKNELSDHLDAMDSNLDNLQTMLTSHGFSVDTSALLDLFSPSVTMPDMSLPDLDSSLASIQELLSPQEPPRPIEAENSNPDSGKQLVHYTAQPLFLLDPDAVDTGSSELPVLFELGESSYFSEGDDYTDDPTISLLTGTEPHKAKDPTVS

[7] = microbe, parasite or virus in culture; format: functional; details: Mycobacterium tuberculosis
[8] = molecular target: T4, Replicative DNA helicase DnaB (Mycobacterium tuberculosis, UniProt P9WMR3); assay: DnaB intein splicing inhibitors, dose response, biochemical, cell-free fluorescence (AID 449749); format: functional
T4 sequence (P9WMR3 whole entry): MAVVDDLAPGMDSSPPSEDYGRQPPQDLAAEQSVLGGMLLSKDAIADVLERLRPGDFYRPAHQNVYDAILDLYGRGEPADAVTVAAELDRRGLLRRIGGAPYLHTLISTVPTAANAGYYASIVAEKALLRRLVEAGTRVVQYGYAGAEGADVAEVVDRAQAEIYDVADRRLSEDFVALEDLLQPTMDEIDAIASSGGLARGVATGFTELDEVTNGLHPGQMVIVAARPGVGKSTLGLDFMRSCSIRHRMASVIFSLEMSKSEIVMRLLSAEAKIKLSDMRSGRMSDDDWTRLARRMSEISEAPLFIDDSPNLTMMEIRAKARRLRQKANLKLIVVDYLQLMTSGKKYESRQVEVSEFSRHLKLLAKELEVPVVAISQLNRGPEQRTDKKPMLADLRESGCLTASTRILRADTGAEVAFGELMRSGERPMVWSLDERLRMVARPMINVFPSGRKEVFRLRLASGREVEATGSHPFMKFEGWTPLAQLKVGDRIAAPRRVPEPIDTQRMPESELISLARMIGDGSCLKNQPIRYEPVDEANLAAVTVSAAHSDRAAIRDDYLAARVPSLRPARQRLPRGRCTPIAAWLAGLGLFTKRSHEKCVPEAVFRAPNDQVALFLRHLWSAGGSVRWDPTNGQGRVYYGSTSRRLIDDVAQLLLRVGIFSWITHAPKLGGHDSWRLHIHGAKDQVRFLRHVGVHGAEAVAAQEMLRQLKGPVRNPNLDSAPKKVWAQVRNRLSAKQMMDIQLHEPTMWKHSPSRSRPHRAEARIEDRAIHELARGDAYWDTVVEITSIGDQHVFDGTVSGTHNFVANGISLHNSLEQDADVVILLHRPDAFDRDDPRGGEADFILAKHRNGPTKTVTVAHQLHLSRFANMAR

[9] = molecular target: T5, Protein RecA (Mycobacterium tuberculosis, UniProt P9WHJ3); assay: Fluorescence Cell-Free Homogeneous Dose Retest to Identify Inhibitors of RecA-Intein Splicing Activity. [Related pubchem assays (depositor defined):AID2097, AID2223, AID489010, AID492950]; format: functional
T5 sequence (P9WHJ3 whole entry): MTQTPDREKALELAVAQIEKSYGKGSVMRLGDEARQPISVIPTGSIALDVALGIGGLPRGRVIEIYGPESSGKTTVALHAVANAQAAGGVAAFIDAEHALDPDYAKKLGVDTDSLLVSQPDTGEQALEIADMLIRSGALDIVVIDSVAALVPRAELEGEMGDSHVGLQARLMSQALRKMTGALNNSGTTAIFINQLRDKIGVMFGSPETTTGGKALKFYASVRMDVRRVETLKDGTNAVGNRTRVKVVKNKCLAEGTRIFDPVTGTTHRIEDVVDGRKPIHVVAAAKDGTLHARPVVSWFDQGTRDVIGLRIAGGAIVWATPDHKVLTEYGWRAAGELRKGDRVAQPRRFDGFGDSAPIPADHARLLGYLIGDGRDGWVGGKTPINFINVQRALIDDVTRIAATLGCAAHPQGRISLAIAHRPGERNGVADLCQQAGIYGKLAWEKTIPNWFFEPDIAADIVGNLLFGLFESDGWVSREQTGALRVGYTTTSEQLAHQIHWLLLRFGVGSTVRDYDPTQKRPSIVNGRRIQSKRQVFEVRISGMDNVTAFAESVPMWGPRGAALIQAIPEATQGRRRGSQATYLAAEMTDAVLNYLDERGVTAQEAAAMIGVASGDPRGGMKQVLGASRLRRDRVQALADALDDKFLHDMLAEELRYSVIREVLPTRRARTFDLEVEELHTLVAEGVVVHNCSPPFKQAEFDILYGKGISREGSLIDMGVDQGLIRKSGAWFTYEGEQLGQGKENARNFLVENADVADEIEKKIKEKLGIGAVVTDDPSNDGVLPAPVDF

[10] = test system: Streptococcus sp. 'group A'; assay: growth inhibition of control SK(-) GAS strain, dose response, counter-screen for streptokinase expression inhibitor project, luminescence, kanamycin, BacTiterGlo, confirmation (AID 1900); format: functional, organism-based
[11] = test system: Streptococcus; assay: Group A Streptococcus viability loss, dose response, counter-screen for streptokinase expression inhibitor project, luminescence, BacTiterGlo (AID 1915); format: functional, organism-based;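 note: potency for reduction of bacterial viability or growth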
[12] = cells; format: functional
[13] = test system: INS1; assay: beta cell apoptosis inhibitors, cytokine rescue, dose response, luminescence, retest (AID 449756); format: functional, cell-based; details: Rattus norvegicus;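 note: cell death triggered by IL-1 beta plus TNF-alpha plus IFN-gamma mixture; protective hits raise ATP signal compared with cytokine alone wells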
[14] = Shn3 3'UTR reporter inhibitors, dose response, cell-based, Clone20 osteoblasts, firefly luciferase, cherry-picked (AID 624132); format: functional;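 note: firefly luciferase luminescence from reporter carrying the Shn3 3'UTR in osteoblasts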
[15] = control 3'UTR Renilla luciferase suppression, dose response, counter-screen for Shn3 inhibitor project, cell-based, Clone20-Shn3RL, cherry-picked (AID 624133); format: functional
[16] = test system: SN12K1; assay: cells; format: functional; details: Homo sapiens
[17] = test system: P388; assay: cells; format: functional; details: Mus musculus;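 note: compound exposure lasted 48 hours before growth was measured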

Chain of Large T antigen (P03070 whole entry): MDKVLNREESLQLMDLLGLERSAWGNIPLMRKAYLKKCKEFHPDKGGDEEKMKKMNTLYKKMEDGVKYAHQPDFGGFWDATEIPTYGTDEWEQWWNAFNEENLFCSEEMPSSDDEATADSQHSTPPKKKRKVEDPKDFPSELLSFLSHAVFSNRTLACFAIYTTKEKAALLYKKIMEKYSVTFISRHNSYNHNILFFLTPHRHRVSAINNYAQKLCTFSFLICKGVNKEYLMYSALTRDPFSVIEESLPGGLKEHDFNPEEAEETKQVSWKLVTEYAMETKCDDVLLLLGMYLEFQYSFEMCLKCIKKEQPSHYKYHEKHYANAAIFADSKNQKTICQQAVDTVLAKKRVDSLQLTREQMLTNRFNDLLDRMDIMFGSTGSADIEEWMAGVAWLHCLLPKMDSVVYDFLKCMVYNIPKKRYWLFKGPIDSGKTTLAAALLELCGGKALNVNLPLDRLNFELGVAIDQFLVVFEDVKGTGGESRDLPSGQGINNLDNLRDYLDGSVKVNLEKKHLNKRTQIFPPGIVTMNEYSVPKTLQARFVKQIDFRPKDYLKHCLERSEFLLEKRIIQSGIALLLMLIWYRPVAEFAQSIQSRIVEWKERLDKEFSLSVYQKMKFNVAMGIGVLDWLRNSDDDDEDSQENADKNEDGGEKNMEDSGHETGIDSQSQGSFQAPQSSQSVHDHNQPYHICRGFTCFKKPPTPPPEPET
Chain of FAD-linked sulfhydryl oxidase ALR (P55789 whole entry): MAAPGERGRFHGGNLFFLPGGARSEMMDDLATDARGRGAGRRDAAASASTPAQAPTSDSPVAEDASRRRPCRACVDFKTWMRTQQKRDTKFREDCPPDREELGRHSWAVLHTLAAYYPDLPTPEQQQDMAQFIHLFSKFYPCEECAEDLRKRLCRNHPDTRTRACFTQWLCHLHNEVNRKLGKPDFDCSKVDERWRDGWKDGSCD

COc1cccc(N2CCN(C(=O)C3CCCN(S(=O)(=O)c4c[nH]cn4)C3)CC2)c1 (stereo unspecified)
AC50 [1]: 16.8 µM (active)

O=C(NNc1c2ccccc2nc2ccccc12)c1cccc(O)c1
AC50 [1]: 0.738 µM (active)

Nc1ccc(Sc2ccccc2CC(=O)O)cc1
IC50 [2]: > 100 µM (active)

Cc1ccnc(NC(c2ccccn2)c2c(C)[nH]c3ccccc23)c1 (stereo unspecified)
AC50 [1]: 1.39 µM (active)

COc1ccc(C(=O)c2ccc(Cl)c([N+](=O)[O-])c2)cc1
AC50 [1]: 3.95 µM (active)
AC50 [3]: 7.17 µM (active)

COc1cc(/C=C2\SC(=S)N(NS(=O)(=O)c3ccccc3)C2=O)ccc1O
IC50 [4]: 38.8 µM (active)
IC50 [5]: 24.5 µM (active)
IC50 [2]: 14.5 µM (active)

Oc1ccc(-c2nc3cnccn3c2Nc2ccc3c(c2)OCCO3)cc1
IC50 [2]: 4.14 µM (active)
EC50 [6]: 11 µM (active)

Cc1cc(C(=O)CCl)c(C)n1CCc1ccc(Cl)cc1
CC50 [7]: 2.48 µM (active)
EC50 [6]: > 260 µM (inconclusive)
AC50 [8]: 8.7 µM (active)
EC50 [9]: 7.32 µM (active)

COc1ccc2[nH]c3ccc(OC)cc3c2c1
AC50 [1]: 8.33 µM (active)

Cc1ccc2nccc(C(=O)N3CCCC(Nc4ccc(F)cc4)C3)c2c1 (stereo unspecified)
AC50 [1]: 3.03 µM (active)

CN1CCCNc2nc3ccccc3nc21
AC50 [1]: 9.27 µM (active)

O=C(Nc1nnc(-c2ccc3c(c2)CCCC3)o1)c1c(F)cccc1F
EC50 [10]: 1.77 µM (active)
EC50 [11]: 7.35 µM (active)
AC50 [1]: 7.99 µM (active)
IC50 [12]: 4.08 µM (active)

Clc1ccc(-c2cc(-c3nnc4n3CCCCC4)c3ccccc3n2)cc1
AC50 [13]: 6.17 µM (active)
AC50 [14]: 5.59 µM (active)
AC50 [15]: 11.1 µM (active)

Cc1noc(C)c1C(=O)Nc1ccc(N(C)C)cc1
AC50 [1]: 1.3 µM (active)

CCCCCOc1ccc(/C=N\c2ccc(-c3ccc(/N=C\c4ccc(OCCCCC)cc4)c(OC)c3)cc2OC)cc1
GI50 [16]: > 100 µM (inactive)
GI50 [17]: > 100 µM (inactive)

CC(=O)Nc1ccc(/C=C/c2ccc(NC(=O)Nc3ccc(/C=C/c4ccc(NC(C)=O)cc4S(=O)(=O)O)c(S(=O)(=O)O)c3)cc2S(=O)(=O)O)c(S(=O)(=O)O)c1
GI50 [16]: > 100 µM (inactive)
GI50 [17]: > 100 µM (inactive)

COc1ccc(CC(=O)N/N=C(\C)CC(=O)Nc2ccc(N(C)C)cc2)cc1OC
IC50 [2]: 10.1 µM (active)

Reference: ChEMBL document CHEMBL1201862, “PubChem BioAssay data set” (2004)
